Where “and” joins values, the source holds several entries; their conditions need not be identical. Identical values can stand only once.
Tests used:
[1] = Antiviral assay against HIV-1 NL4-3, percentage of infected cells by immunofluorescence (Example 2); conditions: human, hela tzmbl cells, Viability Percentages, replicate wells
HIV-1 NL4-3 = assay: as above; conditions: Human immunodeficiency virus 1, NL43, 48 h
HeLa TZMBL cells = assay: Cytotoxicity of D-xylose alone or + insulin, MTT assay, absence of viral infection (Example 2)
[2] = as above; conditions: human, hela tzmbl cells
Vero AD cells = assay: Cytotoxicity of D-xylose, MTT assay, absence of viral infection (Example 1); assay type: cell-based; conditions: remdesivir at the time of infection
Method: (§1) Cells (Vero E6) were used, with two modes of administration: either at the same time or 6 h before infection with SARS-CoV-2 (isolated early).
(§2) The readout for this test is CPE, so the infection will be stopped at 72 hpi (hours post-infection), and the compound will remain for the duration of the experiment. In parallel, the cytotoxicity of the same compound concentrations will be tested in the absence of viral infection.
(§3) The day before the experiment, the 8,000 cells/well are seeded in two 96-well plates (clear, Sarstedt), one for the antiviral study and one for the cytotoxicity study.
(§4) 134.4 μl of the 1 M composition is transferred to 1,465.6 μl of infection medium (=84 mM, twice the final maximum concentration).
(§5) Next, the cell support in the cytotoxicity plate is removed.
(§6) Immediately afterwards, 50 μl of undiluted infection medium is added to all the wells.
(§7) Next, 50 μl of infection medium without diluent is added to columns 4 to 6.
(§8) Next, the plate is incubated at 37 °C, 5% CO2 for 48 h.
(§9) After 72 h, when the CPE is evident, an MTT assay is performed for the antiviral and cytotoxicity plates.

[3] = as above; assay type: cell-based; conditions: monkey, vero cells, remdesivir at the time of infection, read-out: Viability percentage
Method: as §1, §2, §3, §4, §5, §6, §7, §8, §9

SARS-CoV-2 [4] = assay: Antiviral assay, inhibition of virus-induced cytopathic effect (CPE) of SARS-CoV-2 by MTT assay (Example 1); conditions: remdesivir at the time of infection; for Viability percentage: 4320 min
[5] = tested on: glycated hemoglobin (HbA1c); conditions: healthy person; cited from earlier work
SARS-CoV-2 [6] = conditions: pre-incubation of 25 minutes prior to infection; cited from earlier work
[7] = AZT 0.002 μM, 2880 min, 0.002 µM
[8] = AZT 0.007 μM, 2880 min, 0.007 µM
[9] = AZT 0.062 μM, 2880 min, 0.062 µM
[10] = AZT 0.556 μM, 2880 min, 0.556 µM
[11] = AZT 1.667 μM, 2880 min, 1.667 µM
[12] = Triton added to untreated cells as control

`Cc1cn([C@H]2C[C@H](N=[N+]=[N-])[C@@H](CO)O2)c(=O)[nH]c1=O` [AZT, 3-azido-3-deoxythymidine, reference compound] gave a viability at 48 h, 0.002 µM ([1]; AZT 0.002 μM) of 29.9%, a viability at 48 h, 0.007 µM ([1]; AZT 0.007 μM) of 48.2% and a viability at 48 h, 0.062 µM ([1]; AZT 0.062 μM) of 74.2%. The viability at 48 h, 0.556 µM ([1]; AZT 0.556 μM) was 92.5%, the viability at 48 h, 1.667 µM ([1]; AZT 1.667 μM) was 96.8% and the viability at 48 h, 5 µM ([1]; AZT 5.000 μM) was 99.1%. For the same compound, the activity at 0.002 µM (HIV-1 NL4-3; read-out: % Infection, AZT 0.002 μM, replicate wells) was 13.3%, the activity at 0.007 µM (HIV-1 NL4-3; read-out: % Infection, AZT 0.007 μM, replicate wells) was 9.89% and the activity at 0.062 µM (HIV-1 NL4-3; read-out: % Infection, AZT 0.062 μM, replicate wells) was 5.07%. It also gave an activity at 0.556 µM (HIV-1 NL4-3; read-out: % Infection, AZT 0.556 μM, replicate wells) of 1.7%, an activity at 1.667 µM (HIV-1 NL4-3; read-out: % Infection, AZT 1.667 μM, replicate wells) of 0.89% and an activity at 5 µM (HIV-1 NL4-3; read-out: % Infection, AZT 5.000 μM, replicate wells) of 0.47%. The “Results for Cytotoxicity (MTT readout)” value (HeLa TZMBL cells; AZT 0.002 μM) was 2.455 and 2.474 and 2.438, the Cytotoxicity percentage (HeLa TZMBL cells; [7]) was −1.89% and −2.69% and −1.17% and the Viability percentage (HeLa TZMBL cells; [7]) was 102.69% and 101.17%. The “Results for Cytotoxicity (MTT readout)” value (HeLa TZMBL cells; AZT 0.007 μM) was 2.29 and 2.333 and 2.278, the Cytotoxicity percentage (HeLa TZMBL cells; [8]) was 3.26% and 5.58% and the Viability percentage (HeLa TZMBL cells; [8]) was 96.74% and 94.42%. The “Results for Cytotoxicity (MTT readout)” value (HeLa TZMBL cells; AZT 0.062 μM) was 2.307 and 2.356 and 2.337, the Cytotoxicity percentage (HeLa TZMBL cells; [9]) was 2.29% and 3.09% and the Viability percentage (HeLa TZMBL cells; [9]) was 97.71%. For the same compound, the “Results for Cytotoxicity (MTT readout)” value (HeLa TZMBL cells; AZT 0.556 μM) was 2.353 and 2.414 and 2.406, the Cytotoxicity percentage (HeLa TZMBL cells; [10]) was 2.42% and −0.16% and 0.18% and the Viability percentage (HeLa TZMBL cells; [10]) was 100.16% and 99.82%. For the same compound, the “Results for Cytotoxicity (MTT readout)” value (HeLa TZMBL cells; AZT 1.667 μM) was 2.46 and 2.505 and 2.469, the Cytotoxicity percentage (HeLa TZMBL cells; [11]) was −2.10% and −4.00% and −2.48% and the Viability percentage (HeLa TZMBL cells; [11]) was 104.00% and 102.48%. The “Results for Cytotoxicity (MTT readout)” value (HeLa TZMBL cells; AZT 5.000 μM) was 2.337 and 2.402 and 2.36, the Cytotoxicity percentage (HeLa TZMBL cells; AZT 5.000 μM, 2880 min, 5 µM) was 3.09% and 0.35% and 2.12% and the Viability percentage (HeLa TZMBL cells; AZT 5.000 μM, 2880 min, 5 µM) was 99.65% and 97.88%. The cytotoxicity at 48 h, 0.007 µM ([2]; Cytotoxicity percentage, AZT 0.007 μM) was 5.07%, the cytotoxicity at 48 h, 0.062 µM ([2]; Cytotoxicity percentage, AZT 0.062 μM) was 4.36% and the viability at 48 h, 0.002 µM ([2]; Viability percentage, AZT 0.002 μM) was 102%. It also gave a viability at 48 h, 0.007 µM ([2]; Viability percentage, AZT 0.007 μM) of 94.9%, a viability at 48 h, 0.062 µM ([2]; Viability percentage, AZT 0.062 μM) of 95.6% and a viability at 48 h, 0.556 µM ([2]; Viability percentage, AZT 0.556 μM) of 97.6%. It also gave a viability at 48 h, 1.667 µM ([2]; Viability percentage, AZT 1.667 μM) of 102% and a viability at 48 h, 5 µM ([2]; Viability percentage, AZT 5.000 μM) of 96.9%.
With `CCC(CC)COC(=O)[C@H](C)N[P@](=O)(OC[C@H]1O[C@@](C#N)(c2ccc3c(N)ncnn23)[C@H](O)[C@@H]1O)Oc1ccccc1` [Remdesivir, reference compound] the Viability percentage (Vero AD cells; 0.31 μm) was 99.84%, the Viability percentage (Vero AD cells; 0.63 μm) was 108.33% and the Viability percentage (Vero AD cells; 1.25 μm) was 110.83% and 112.82%. The Viability percentage (Vero AD cells; 2.5 μm) was 107.83% and 115.32%, the Viability percentage (Vero AD cells; 5 μm) was 122.31% and the Viability percentage (Vero AD cells; 10 μm) was 106.83%. For the same compound, the Viability percentage (Vero AD cells; 20 μm) was 94.35% and 93.35%, the viability at […] ([3]; 0.16 μm) was 100% and the viability at 0.31 µM ([3]; 0.31 μm) was 106%. The viability at 0.63 µM ([3]; 0.63 μm) was 102%, the viability at 1.25 µM ([3]; 1.25 μm) was 103% and the viability at 2.5 µM ([3]; 2.5 μm) was 112%. The viability at 5 µM ([3]; 5 μm) was 110%, the viability at 10 µM ([3]; 10 μm) was 105% and the viability at 20 µM ([3]; 20 μm) was 101%. For the same compound, the “absorbance at 570 nm” value (SARS-CoV-2 [4]; 0.16 μm) was 0.086 and 0.077 and 0.078, the “absorbance at 570 nm” value (SARS-CoV-2 [4]; 0.31 μm) was 0.084 and 0.098 and the “absorbance at 570 nm” value (SARS-CoV-2 [4]; 0.63 μm) was 0.094. For the same compound, the “absorbance at 570 nm” value (SARS-CoV-2 [4]; 1.25 μm) was 0.127 and 0.137 and 0.128, the Viability percentage (SARS-CoV-2 [4]; 1.25 μm) was 47.72% and 46.55% and 58.30% and the “absorbance at 570 nm” value (SARS-CoV-2 [4]; 2.5 μm) was 0.178 and 0.195. For the same compound, the Viability percentage (SARS-CoV-2 [4]; 2.5 μm) was 92.36% and 106.46% and 126.43%, the “absorbance at 570 nm” value (SARS-CoV-2 [4]; 5 μm) was 0.198 and 0.215 and 0.174 and the Viability percentage (SARS-CoV-2 [4]; 5 μm) was 101.76% and 129.96% and 149.93%. The “absorbance at 570 nm” value (SARS-CoV-2 [4]; 10 μm) was 0.169 and 0.199 and 0.188, the Viability percentage (SARS-CoV-2 [4]; 10 μm) was 118.21% and 95.89% and 131.13% and the Viability percentage (SARS-CoV-2 [4]; 20 μm) was 80.62% and 86.49% and 79.44%.
In the case of `OC[C@@H](O)[C@H](O)[C@@H](O)CO` [xylitol, reference compound], the “effect on glycated hemoglobin (HbA1c) levels” value [5] is given as “little or no effect”.
With Triton [reference compound] the Cytotoxicity percentage (HeLa TZMBL cells; [12]) was 99.99% and 100.03%, the “Results for Cytotoxicity (MTT readout)” value (HeLa TZMBL cells; [12]) was 0.040 and 0.039 and the Viability percentage (HeLa TZMBL cells; [12]) was 0.01% and −0.03%.
For heparin, the “inhibition of SARS-CoV-2 viral attachment” value (SARS-CoV-2 [6]) is listed as “inhibits SARS-CoV-2 viral attachment”.
